From ChEMBL document CHEMBL2046329, “Furin inhibitors: importance of the positive formal charge and beyond” (Bioorg Med Chem, 2012)
Residues, ends and D or L forms follow the SMILES beside them.

Biological target: Furin (Homo sapiens, UniProt P09958)
Test: Inhibition of furin

Sequence of Furin (P09958 whole entry): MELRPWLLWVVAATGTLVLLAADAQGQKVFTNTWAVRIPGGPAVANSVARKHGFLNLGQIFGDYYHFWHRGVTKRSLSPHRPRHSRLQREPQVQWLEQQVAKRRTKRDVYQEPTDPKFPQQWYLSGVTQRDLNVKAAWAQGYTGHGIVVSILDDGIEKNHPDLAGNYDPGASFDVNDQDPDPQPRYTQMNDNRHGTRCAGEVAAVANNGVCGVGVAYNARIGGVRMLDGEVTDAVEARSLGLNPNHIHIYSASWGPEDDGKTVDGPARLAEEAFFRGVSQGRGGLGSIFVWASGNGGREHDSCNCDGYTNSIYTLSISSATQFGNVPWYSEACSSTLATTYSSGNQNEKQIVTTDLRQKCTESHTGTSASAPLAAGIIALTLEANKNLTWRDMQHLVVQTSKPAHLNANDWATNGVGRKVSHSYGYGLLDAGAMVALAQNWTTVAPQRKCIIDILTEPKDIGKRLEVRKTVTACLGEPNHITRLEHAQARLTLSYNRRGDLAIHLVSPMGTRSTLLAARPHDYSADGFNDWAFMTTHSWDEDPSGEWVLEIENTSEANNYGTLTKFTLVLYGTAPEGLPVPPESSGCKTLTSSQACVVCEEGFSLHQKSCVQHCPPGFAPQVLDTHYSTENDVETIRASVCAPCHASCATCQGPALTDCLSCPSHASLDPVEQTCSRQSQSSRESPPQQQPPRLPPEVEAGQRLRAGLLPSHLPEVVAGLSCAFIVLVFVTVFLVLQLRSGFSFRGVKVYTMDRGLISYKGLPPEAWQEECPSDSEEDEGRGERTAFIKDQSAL

SMILES	Ki [nM]
CC(C)[C@H](NC(=O)[C@H](CCCNC(=N)N)NCC(=O)Oc1ccccc1)C(=O)N[C@@H](CCCNC(=N)N)C(=O)NC1CCNCC1	9710
CSCC[C@H](NC(=O)[C@H](CC(C)C)NC(C)=O)C(=O)N[C@@H](CCCNC(=N)N)C(=O)N[C@H](C(=O)N[C@@H](CCCCN)C(=O)N[C@@H](CCCNC(=N)N)C(N)=O)C(C)C (Ac-LMRVKR-NH2)	1900
CC(=O)N[C@@H](CC(C)C)C(=O)N[C@@H](CCCCN)C(=O)N[C@@H](CCCN=C(N)N)C(=O)N[C@H](C(=O)N[C@@H](CCCCN)C(=O)N[C@@H](CCCN=C(N)N)C(N)=O)C(C)C (Ac-LKRVKR-NH2)	190
CC(C)[C@H](NC(=O)[C@H](CCCN=C(N)N)NCC(=O)Oc1ccccc1)C(=O)N[C@@H](CCCN=C(N)N)C(=O)Nc1cccc(CN=C(N)N)c1	2730
CC(C)[C@H](NC(=O)[C@H](CCCN=C(N)N)NCC(=O)Oc1ccccc1)C(=O)N[C@@H](CCCN=C(N)N)C(=O)NCCCCCN=C(N)N	1070
CC(C)[C@H](NC(=O)[C@H](CCCN=C(N)N)NCC(=O)Oc1ccccc1)C(=O)N[C@@H](CCCN=C(N)N)C(=O)NC1CCN(C(=N)N)CC1	53
CC(C)[C@H](NC(=O)[C@H](CCCNC(=N)N)NCC(=O)Oc1ccccc1)C(=O)N[C@@H](CCCNC(=N)N)C(=O)NCCCCN	7490
CC(C)[C@H](NC(=O)[C@H](CCCNC(=N)N)NCC(=O)Oc1ccccc1)C(=O)N[C@@H](CCCNC(=N)N)C(=O)Nc1ccc(CNC(=N)N)cc1	1430
CC(=O)N[C@@H](CC(C)C)C(=O)N[C@@H](Cc1ccc(O)cc1)C(=O)N[C@@H](CCCN=C(N)N)C(=O)N[C@H](C(=O)N[C@@H](CCCCN)C(=O)N[C@@H](CCCN=C(N)N)C(N)=O)C(C)C (Ac-LYRVKR-NH2)	3400
CCc1ccc(NC(=O)[C@H](CCCNC(=N)N)NC(=O)[C@@H](NC(=O)[C@H](CCCNC(=N)N)NCC(=O)Oc2ccccc2)C(C)C)cc1	627
CC(C)C[C@H](NC(=O)[C@@H](N)CC(C)C)C(=O)N[C@@H](CCCNC(=N)N)C(=O)N[C@H](C(=O)N[C@@H](CCCCN)C(=O)N[C@@H](CCCNC(=N)N)C(N)=O)C(C)C	800
CC(C)[C@H](NC(=O)[C@H](CCCNC(=N)N)NCC(=O)Oc1ccccc1)C(=O)N[C@@H](CCCNC(=N)N)C(=O)NCCCCCN	553
CC(C)[C@H](NC(=O)[C@H](CCCN=C(N)N)NCC(=O)Oc1ccccc1)C(=O)N[C@@H](CCCN=C(N)N)C(=O)NCCCN	3020
CC(=O)N[C@@H](CC(C)C)C(=O)N[C@@H](CC(C)C)C(=O)N[C@@H](CCCN=C(N)N)C(=O)N[C@H](C(=O)N[C@@H](CCCCN)C(=O)N[C@@H](CCCN=C(N)N)C(=O)O)C(C)C	3500
CC(C)[C@H](NC(=O)[C@H](CCCN=C(N)N)NCC(=O)Oc1ccccc1)C(=O)N[C@@H](CCCN=C(N)N)C(=O)Nc1cccc(CN)c1	1320
CC(C)[C@H](NC(=O)[C@H](CCCNC(=N)N)NCC(=O)Oc1ccccc1)C(=O)N[C@@H](CCCNC(=N)N)C(=O)NCCCCNC(=N)N	78
CC(C)[C@H](NC(=O)[C@H](CCCNC(=N)N)NCC(=O)Oc1ccccc1)C(=O)N[C@@H](CCCNC(=N)N)C(=O)NCCCNC(=N)N	63
CC(=O)N[C@@H](CC(C)C)C(=O)N[C@@H](CC(C)C)C(=O)N[C@@H](CCCN=C(N)N)C(=O)N[C@H](C(=O)N[C@@H](CCCCN)C(=O)N[C@@H](CCCN=C(N)N)C(N)=O)C(C)C	1400
CC(C)C[C@H](NC(=O)[C@@H](N)CC(C)C)C(=O)N[C@@H](CCCNC(=N)N)C(=O)N[C@H](C(=O)N[C@@H](CCCCN)C(=O)N[C@@H](CCCNC(=N)N)C(=O)O)C(C)C	420
N=C(N)NCCC[C@H](NC(=O)[C@H](CCCNC(=N)N)NC(=O)[C@H](CCCNC(=N)N)NC(=O)[C@@H](N)CCCNC(=N)N)C(=O)O (H-RRRR-OH)	6400
CC(=O)N[C@@H](CCCNC(=N)N)C(=O)N[C@H](C(=O)N[C@@H](CCCNC(=N)N)C(=O)Nc1ccc(C(=N)N)cc1)C(C)C	1
N=C(N)NCCC[C@H](NC(=O)[C@H](CCCNC(=N)N)NC(=O)[C@H](CCCNC(=N)N)NC(=O)[C@H](CCCNC(=N)N)NC(=O)[C@@H](N)CCCNC(=N)N)C(=O)O (H-RRRRR-OH)	990
NC(N)=NCCC[C@H](NC(=O)[C@H](CCCN=C(N)N)NC(=O)[C@H](CCCN=C(N)N)NC(=O)[C@H](CCCN=C(N)N)NC(=O)[C@H](CCCN=C(N)N)NC(=O)[C@@H](N)CCCN=C(N)N)C(=O)O	114
CCCCCCCCCC(=O)N[C@@H](CCCN=C(N)N)C(=O)N[C@H](C(=O)N[C@@H](CCCN=C(N)N)C(=O)Nc1ccc(C(=N)N)cc1)C(C)C	1.6
CCCCCCCCCC(=O)N[C@@H](CCCN=C(N)N)C(=O)N[C@H](C(=O)N[C@@H](CCCCN)C(=O)Nc1ccc(C(=N)N)cc1)C(C)C	3.3
